Relative viability data for 1 cell line are collected here from the supplement of paper PMC10307832.

Common to all, as to test: relative viability (nuclei count vs DMSO), 5 days (fraction); higher = more cells survive
Compound in the assay “NVP-TAE684 + Pictilisib”: COc1cc(N2CCC(N3CCN(C)CC3)CC2)ccc1Nc1ncc(Cl)c(Nc2ccccc2S(=O)(=O)C(C)C)n1 [NVP-TAE684] + CS(=O)(=O)N1CCN(Cc2cc3nc(-c4cccc5[nH]ncc45)nc(N4CCOCC4)c3s2)CC1 [Pictilisib] (partner 1 µM)
The method in brief: (§1)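 Medians of duplicate plates are given as relative viability. That measure is the nuclei count in treated wells divided by the count in vehicle wells. Counts were taken on 4× images of lung cancer cell lines in 1536-well plates, 5 days after pin-tool dosing the day after seeding with one drug alone or a fixed anchor-drug dose plus five library-drug doses (not always all listed) in √10 steps.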

Compound in the assay “CUDC-101 + Pemetrexed”: C#Cc1cccc(Nc2ncnc3cc(OC)c(OCCCCCCC(=O)NO)cc23)c1 [CUDC-101] + Nc1nc2[nH]cc(CCc3ccc(C(=O)N[C@@H](CCC(=O)O)C(=O)O)cc3)c2c(=O)[nH]1 [Pemetrexed] (partner 0.2 µM)
An outline of the steps:
as §1

Compound in the assay “NVP-TAE684 + Dasatinib”: COc1cc(N2CCC(N3CCN(C)CC3)CC2)ccc1Nc1ncc(Cl)c(Nc2ccccc2S(=O)(=O)C(C)C)n1 [NVP-TAE684] + Cc1nc(Nc2ncc(C(=O)Nc3c(C)cccc3Cl)s2)cc(N2CCN(CCO)CC2)n1 [Dasatinib] (partner 0.075 µM)
The method in brief:
as §1

Compound in assay [1]: C1=CC=C2C(=C1)N=C(S2)C(C#N)C3=NC(=NC=C3)NCCC4=CN=CC=C4 + N=C(N)NC(=N)NCCc1ccccc1 [Phenformin] (partner 250 µM)
The method in brief: as §1

Compound in the assay “CUDC-101 + Lapatinib”: C#Cc1cccc(Nc2ncnc3cc(OC)c(OCCCCCCC(=O)NO)cc23)c1 [CUDC-101] + CS(=O)(=O)CCNCc1ccc(-c2ccc3ncnc(Nc4ccc(OCc5cccc(F)c5)c(Cl)c4)c3c2)o1 [Lapatinib] (partner 2 µM)
An outline of the steps:
as §1

With UMC-11, the relative viability in the assay with NVP-TAE684 + Pictilisib (first compound 0.2 µM) came to 0.979; with NVP-TAE684 + Pictilisib (first compound 2 µM), 0.586; with CUDC-101 + Pemetrexed (first compound 0.01 µM), 0.78; with CUDC-101 + Pemetrexed (first compound 0.03162 µM), 0.72; with CUDC-101 + Pemetrexed (first compound 0.1 µM) it was 0.639; with CUDC-101 + Pemetrexed (first compound 0.3162 µM), 0.415. Further, the relative viability in the assay with CUDC-101 + Pemetrexed (first compound 1 µM) came out at 0.219; with NVP-TAE684 + Dasatinib (first compound 0.2 µM), 0.577; with NVP-TAE684 + Dasatinib (first compound 0.6325 µM) it was 0.415; with NVP-TAE684 + Dasatinib (first compound 2 µM), 0.284; in assay [1] (first compound 0.005 µM), 0.3; in assay [1] (first compound 0.01581 µM), 0.315. The relative viability worked out at 0.32 in assay [1] (first compound 0.05 µM); 0.325 in assay [1] (first compound 0.1581 µM); 0.336 in assay [1] (first compound 0.5 µM); 1.05 in the assay with CUDC-101 + Lapatinib (first compound 0.01 µM); 0.968 with CUDC-101 + Lapatinib (first compound 0.03162 µM); 0.724 with CUDC-101 + Lapatinib (first compound 0.1 µM). Moreover, the relative viability with CUDC-101 + Lapatinib (first compound 0.3162 µM) was 0.711; with CUDC-101 + Lapatinib (first compound 1 µM) it was 0.126.
